# In ChEMBL document CHEMBL1221243, “Design, synthesis, and biological evaluation of a novel series of quercetin diacylglucosides as potent anti-MRSA and anti-VRE agents” (Bioorg Med Chem Lett, 2010):
# What was measured:
# [1] = tested on: Staphylococcus aureus; assay: Antimicrobial activity against methicillin-resistant Staphylococcus aureus COL after 24 hrs by microdilution assay; type: functional
# [2] = Inhibition of Escherichia coli DNA gyraseB assessed as inhibition of pBR322 supercoiling by densitometry
# [3] = tested on: Staphylococcus aureus; assay: Antimicrobial activity against methicillin-resistant Staphylococcus aureus OM584 after 24 hrs by microdilution assay; type: functional; conditions: OM584, 24 h
# [4] = tested on: Staphylococcus aureus; assay: Antimicrobial activity against methicillin-sensitive Staphylococcus aureus 209P after 24 hrs by microdilution assay; type: functional
# [5] = tested on: Staphylococcus aureus; assay: Antimicrobial activity against methicillin-resistant Staphylococcus aureus OM481 after 24 hrs by microdilution assay; type: functional; conditions: OM481, 24 h
# [6] = Inhibition of Escherichia coli DNA gyraseB calculated by AutoDock docking into the ATP binding site
# [7] = tested on: Staphylococcus aureus; assay: Antimicrobial activity against methicillin-resistant Staphylococcus aureus N315 after 24 hrs by microdilution assay; type: functional; conditions: N315, 24 h
# [8] = tested on: Escherichia coli; assay: Antimicrobial activity against Escherichia coli K-12 after 24 hrs by microdilution assay; type: functional; conditions: K-12, 24 h
# [9] = tested on: Staphylococcus aureus; assay: Antimicrobial activity against vancomycin intermediate-resistant Staphylococcus aureus Mu50 after 24 hrs by microdilution assay; type: functional; conditions: Mu50, 24 h
# [10] = tested on: Enterococcus; assay: Antimicrobial activity against vancomycin-resistant Enterococcus FN-1 after 24 hrs by microdilution assay; type: functional; conditions: FN-1, 24 h
# [11] = tested on: Enterococcus; assay: Antimicrobial activity against vancomycin-resistant Enterococcus NCTC 12201 after 24 hrs by microdilution assay; type: functional; conditions: NCTC 12201, 24 h
Structure (SMILES),MIC [1],IC50 [2],MIC [3],MIC [4],MIC [5],Ki [6],MIC [7],MIC [8],MIC [9],MIC [10],MIC [11]
CCn1cc(C(=O)O)c(=O)c2cc(F)c(N3CCNCC3)cc21 [NORFLOXACIN],1 mg/L,90 nM,128 mg/L,0.5 mg/L,64 mg/L,0.09 nM,2 mg/L,0.25 mg/L,,,
CN[C@H](CC(C)C)C(=O)N[C@H]1C(=O)N[C@@H](CC(N)=O)C(=O)N[C@H]2C(=O)N[C@H]3C(=O)N[C@H](C(=O)N[C@H](C(=O)O)c4cc(O)cc(O)c4-c4cc3ccc4O)[C@H](O)c3ccc(c(Cl)c3)Oc3cc2cc(c3O[C@@H]2O[C@H](CO)[C@@H](O)[C@H](O)[C@H]2O[C@H]2C[C@](C)(N)[C@H](O)[C@H](C)O2)Oc2ccc(cc2Cl)[C@H]1O [VANCOMYCIN],0.25 mg/L,,0.25 mg/L,0.25 mg/L,0.25 mg/L,,0.25 mg/L,,8 mg/L,> 128 mg/L,> 128 mg/L
